Molecules are shown by their SMILES.

Series [1] is described as follows: In Vivo Pharmacokinetics Assay in mouse. How it is done:
In Vivo Pharmacokinetics Assay
Full pharmacokinetics study: Male Balb/c mice (n=3, body weights 22-25 g) or male Wistar rats (n=3, body weights 250-300 g) were administered the test compound intravenously via the lateral tail vein or orally via gavage. The formulation was typically a 2.5 mg/mL solution of the compound in 75% PEG300 and 25% D5W. Six blood samples of 50 μL each were collected serially for 24 h after dosing. The blood samples were centrifuged to separate the plasma. Plasma samples were analyzed and quantified by LC-MS/MS.
Rapid pharmacokinetics study: Male Balb/c mice (n=3, body weights 22-25 g) or male Wistar rats (n=3, body weights 250-300 g) were administered the test compound intravenously (IV) via the lateral tail vein or orally (PO) via gavage. The formulation was typically a 2.5 mg/mL solution of the compound in 75% PEG300 and 25% D5W. Six blood samples of 50 μL each were collected serially for 24 h after dosing. Blood samples were centrifuged and plasma separated and pooled across the three animals at each time point per dose route. Plasma samples were analyzed and quantified by LC-MS/MS.
For both full and rapid pharmacokinetics studies, the following parameters were calculated by non-compartmental regression analysis using Winnonlin 5.0 software (Pharsight, Mountain View, Calif., USA): plasma clearance (Cl), plasma maximum concentration (Cmax), plasma area-under-the-concentration-time-curve (AUC0-inf), and percent oral bioavailability (F %).

The subject of the next series is p38α MAP Kinase. Description: A549 p38α MAP Kinase Bright-Glo Reporter Gene Assay. The format is cell-based. Particulars: ratio of A549 p38 RGA IC50 to A375 CP IC50. Here is the method: A549 p38α MAP Kinase Bright-Glo Reporter Gene Assay
A549 cells were stably-transfected with the IL-8 promoter driven reporter, pGL3-IL8-Luc. The cells were plated at 4×10^5/ml into 384-well solid white plates (40 ul/well, 5% CD-FBS, 1×P/S, DMEM) and were incubated overnight (18-20 hours) at 37° C. Test compounds were serially diluted in DMSO, then 50 nl of test solution was added to the incubation (final DMSO concentration of 0.1%). After incubating with test compound for 30 min, cells were stimulated with 1 ng/ml IL-1 beta (10 ul of 5 ng/ml solution per well). Bright-Glo (25 ul/well) was added to measure luciferase expression after 7-8 hours of stimulation.

The test system of the next series is SW620 cells. Description: SW620 Cell Viability Assay (Cell Titer Glo). The format is cell-based. The note with it: 9 serial dilutions between 10 and 0.002 μM, without MEK inhibitor. Here is the method: The present invention also includes combinations of the BRaf inhibitors disclosed in this invention with other agents. In particular, the present invention provides for combinations with MEK1/2 inhibitors. FIG. 1 illustrates that the addition of a MEK small molecule inhibitor can reverse the induced ERK signaling, cell growth and transformation caused by a Raf small molecule inhibitor.
SW620 Cell Viability Assay
SW620 cells were seeded in 1640 RPMI+10% FBS at a density of 1500 cells per 96-well in black walled, clear bottom tissue culture treated plates. Test compounds were serially diluted in DMSO then added to the cells (final DMSO concentration of 0.1%) and incubated at 37° C. and 5% CO2 for 4 days. To measure cell viability, cell plates were brought to room temperature, culture media was removed, and 200 μl of Cell Titer-Glo reagent (Promega, kit components mixed as per the manufacturer's protocol then diluted 1:2 with growth media) was added to each well. Plates were shaken for 5 minutes, then incubated at room temperature for 5 minutes, and the luminescence was measured (Trilux, Perkin Elmer).
(In ATP-based viability assays light output follows the ATP content of the culture.)

Series [2] is described as follows: Liver Microsomal Clearance Assay, human. The format is in vitro ADME. From the text: Liver Microsomal Clearance Assay
The in vitro microsomal clearance assay is designed to assess potential risks associated with hepatic metabolic stability of compounds. […] These values may be scaled to predict hepatic metabolic clearance rate (CLh, mL/min/kg) and extraction ratio (ER, expressed as a ratio of the predicted hepatic metabolic clearance to hepatic blood flow in that species). In general, compounds with high predicted CLint or ER in vitro are considered to be at high risk for exposure-limiting metabolism in vivo.
For orientation: Liver microsomes are a subcellular fraction often used to study metabolism.

Regarding `CCCS(=O)(=O)Nc1cccc(-c2nn(C(C)C)cc2-c2ccnc(NC[C@H](C)NC(=O)OC)n2)c1F` [Compound 3, methyl N-[(2S)-1-[(4-{3-[2-fluoro-3-(propane-1-sulfonamido)phenyl]-1-(propan-2-yl)-1H-pyrazol-4-yl}pyrimidin-2-yl)amino]propan-2-yl]carbamate], in series [1] (PO/IV 5/2 mg/kg, n = 1), the F was 6 (n = 1) %.

Regarding `COC(=O)NC[C@H](C)Nc1nccc(-c2cn(C(C)C)nc2-c2cc(Cl)cc(NS(C)(=O)=O)c2F)n1` [Compound 32, Methyl N-[(2S)-2-({4-[3-(5-chloro-2-fluoro-3-methanesulfonamidophenyl)-1-(propan-2-yl)-1H-pyrazol-4-yl]pyrimidin-2-yl}amino)propyl]carbamate], the “(p38 RGA)/(A375) ratio” value in the series on p38α MAP Kinase came out at 91.

Take `CNc1nccc(-c2cn(C(C)C)nc2-c2cc(Cl)cc(NS(C)(=O)=O)c2F)n1` [Compound 29, N-(5-chloro-2-fluoro-3-{4-[2-(methylamino)pyrimidin-4-yl]-1-(propan-2-yl)-1H-pyrazol-3-yl}phenyl)methanesulfonamide]: the “(p38 RGA)/(A375) ratio” value in the series on p38α MAP Kinase is 220.

As to `COC(=O)N[C@@H](C)CNc1nccc(-c2cn(C(C)C)nc2-c2cc(Cl)cc(NS(C)(=O)=O)c2F)n1` [Compound 9, Methyl N-[(2S)-1-({4-[3-(5-chloro-2-fluoro-3-methanesulfonamidophenyl)-1-(propan-2-yl)-1H-pyrazol-4-yl]pyrimidin-2-yl}amino)propan-2-yl]carbamate], the “effect on cellular proliferation (negative inhibition in FIG. 1)” value with SW620 cells is listed as “induction in cellular proliferation”. The F in series [1] (PO/IV 10/2 mg/kg) stood at 43 ± 6%. In addition, in series [2], the “ER (human)” value is listed as less than 0.21.

In the case of `CCCS(=O)(=O)Nc1ccc(F)c(-c2nn(C(C)C)cc2-c2ccnc(NC[C@H](C)NC(=O)OC)n2)c1F` [Compound 7, Methyl N-[(2S)-1-[(4-{3-[2,6-difluoro-3-(propane-1-sulfonamido)phenyl]-1-(propan-2-yl)-1H-pyrazol-4-yl}pyrimidin-2-yl)amino]propan-2-yl]carbamate], the F in series [1] (PO/IV 10/2 mg/kg) stood at 8 ± 7%.

Molecule `COC(=O)N[C@@H](C)CNc1nccc(-c2cn(C(C)C)nc2-c2c(F)ccc(NS(C)(=O)=O)c2F)n1` [Compound 6, methyl N-[(2S)-1-({4-[3-(2,6-difluoro-3-methanesulfonamidophenyl)-1-(propan-2-yl)-1H-pyrazol-4-yl]pyrimidin-2-yl}amino)propan-2-yl]carbamate] came in with a F in series [1] (PO/IV 10/2 mg/kg) of 15 ± 3%. Further, the “ER (human)” value in series [2] stood at 0.69.

For the molecule `CCCS(=O)(=O)Nc1cc(Cl)cc(-c2nn(C(C)C)cc2-c2ccnc(NC[C@H](C)NC(=O)OC)n2)c1F` [Compound 1, Methyl N-[(2S)-1-[(4-{3-[5-chloro-2-fluoro-3-(propane-1-sulfonamido)phenyl]-1-(propan-2-yl)-1H-pyrazol-4-yl}pyrimidin-2-yl)amino]propan-2-yl]carbamate], the F in series [1] (PO/IV 5/2 mg/kg, n = 1) is reported as 46 (n = 1) %.

In turn, `COC(=O)N[C@@H](C)CNc1nccc(-c2cn(C(C)C)nc2-c2cccc(NS(C)(=O)=O)c2F)n1` [Compound 4, methyl N-[(2S)-1-({4-[3-(2-fluoro-3-methanesulfonamidophenyl)-1-(propan-2-yl)-1H-pyrazol-4-yl]pyrimidin-2-yl}amino)propan-2-yl]carbamate] returned a F in series [1] (PO/IV 10/2 mg/kg) of 36 ± 6%.
